Test results taken from US20220009920A1 (GB005, Inc., priority 2020, published 2022).

Experiments:
Assay in all cases: Large panel kinase profiling
Format in all cases: biochemical
Conditions in all cases: 1 μM test article, 1 mM ATP
NEK7 = target: T1, NEK7 (Homo sapiens, UniProt Q8TDX7)
T1 construct: AssayQuant Technologies, Inc. (assay service)
How it was run: (§1)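 Steps: combine kinase, CSox-Sensor substrate, 1 mM ATP and 1 μM compound; seal and incubate at 30° C.; read top fluorescence kinetically each minute, Ex 360 nm/Em 485 nm.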

LYNB = LYNB (Homo sapiens, UniProt P07948)
Sequence of LYNB (P07948 1-491 isoform P07948-2, species assumed): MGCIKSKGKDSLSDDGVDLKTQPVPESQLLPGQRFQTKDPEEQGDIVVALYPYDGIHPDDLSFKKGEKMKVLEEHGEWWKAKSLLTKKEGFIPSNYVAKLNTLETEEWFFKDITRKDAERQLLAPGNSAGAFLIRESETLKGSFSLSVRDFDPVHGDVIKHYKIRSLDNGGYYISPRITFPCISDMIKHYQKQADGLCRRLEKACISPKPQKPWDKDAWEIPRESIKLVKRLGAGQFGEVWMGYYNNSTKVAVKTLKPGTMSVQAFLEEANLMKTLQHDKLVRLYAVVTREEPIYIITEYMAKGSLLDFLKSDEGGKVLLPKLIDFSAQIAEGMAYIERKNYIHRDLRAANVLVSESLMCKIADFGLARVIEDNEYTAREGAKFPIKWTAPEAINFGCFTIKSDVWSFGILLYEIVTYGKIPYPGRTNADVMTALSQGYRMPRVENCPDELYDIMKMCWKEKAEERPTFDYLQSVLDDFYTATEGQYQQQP
How it was run: as §1

SYK = target: T2, SYK (Homo sapiens, UniProt P43405)
T2 construct: AssayQuant Technologies, Inc. (contract assay)
How it was run: as §1

EPHA6 = target: T3, EPHA6 (Homo sapiens, UniProt Q9UF33)
T3 sequence (Q9UF33 23-1036): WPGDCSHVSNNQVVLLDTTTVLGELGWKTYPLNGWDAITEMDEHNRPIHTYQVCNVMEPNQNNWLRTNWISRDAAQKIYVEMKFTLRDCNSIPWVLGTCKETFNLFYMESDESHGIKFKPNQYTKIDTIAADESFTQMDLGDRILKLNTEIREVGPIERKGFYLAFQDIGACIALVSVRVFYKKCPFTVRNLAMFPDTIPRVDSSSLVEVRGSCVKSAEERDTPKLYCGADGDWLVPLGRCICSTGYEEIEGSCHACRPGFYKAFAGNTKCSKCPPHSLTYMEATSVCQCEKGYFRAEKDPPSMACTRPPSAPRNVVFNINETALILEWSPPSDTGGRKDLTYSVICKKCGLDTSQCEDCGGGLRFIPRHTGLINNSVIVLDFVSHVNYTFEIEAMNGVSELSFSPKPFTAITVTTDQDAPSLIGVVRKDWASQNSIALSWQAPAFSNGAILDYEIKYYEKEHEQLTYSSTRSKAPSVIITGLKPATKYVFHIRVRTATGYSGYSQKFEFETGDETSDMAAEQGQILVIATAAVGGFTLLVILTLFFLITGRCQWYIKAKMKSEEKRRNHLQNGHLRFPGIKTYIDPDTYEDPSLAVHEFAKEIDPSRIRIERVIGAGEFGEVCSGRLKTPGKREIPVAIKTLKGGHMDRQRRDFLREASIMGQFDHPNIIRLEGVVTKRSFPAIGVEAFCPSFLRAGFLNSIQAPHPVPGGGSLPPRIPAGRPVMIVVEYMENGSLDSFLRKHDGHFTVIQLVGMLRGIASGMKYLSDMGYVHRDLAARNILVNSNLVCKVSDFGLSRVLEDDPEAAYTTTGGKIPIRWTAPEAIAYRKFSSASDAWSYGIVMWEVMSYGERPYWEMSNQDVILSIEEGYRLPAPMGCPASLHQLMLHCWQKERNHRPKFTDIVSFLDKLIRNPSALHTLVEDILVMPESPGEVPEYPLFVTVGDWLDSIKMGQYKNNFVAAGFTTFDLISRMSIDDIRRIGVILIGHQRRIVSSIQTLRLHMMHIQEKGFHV
How it was run: as §1

GAK = target: T4, GAK (Homo sapiens, UniProt O14976)
T4 construct: AssayQuant Technologies, Inc. (service provider)
T4 sequence (O14976 1-1311): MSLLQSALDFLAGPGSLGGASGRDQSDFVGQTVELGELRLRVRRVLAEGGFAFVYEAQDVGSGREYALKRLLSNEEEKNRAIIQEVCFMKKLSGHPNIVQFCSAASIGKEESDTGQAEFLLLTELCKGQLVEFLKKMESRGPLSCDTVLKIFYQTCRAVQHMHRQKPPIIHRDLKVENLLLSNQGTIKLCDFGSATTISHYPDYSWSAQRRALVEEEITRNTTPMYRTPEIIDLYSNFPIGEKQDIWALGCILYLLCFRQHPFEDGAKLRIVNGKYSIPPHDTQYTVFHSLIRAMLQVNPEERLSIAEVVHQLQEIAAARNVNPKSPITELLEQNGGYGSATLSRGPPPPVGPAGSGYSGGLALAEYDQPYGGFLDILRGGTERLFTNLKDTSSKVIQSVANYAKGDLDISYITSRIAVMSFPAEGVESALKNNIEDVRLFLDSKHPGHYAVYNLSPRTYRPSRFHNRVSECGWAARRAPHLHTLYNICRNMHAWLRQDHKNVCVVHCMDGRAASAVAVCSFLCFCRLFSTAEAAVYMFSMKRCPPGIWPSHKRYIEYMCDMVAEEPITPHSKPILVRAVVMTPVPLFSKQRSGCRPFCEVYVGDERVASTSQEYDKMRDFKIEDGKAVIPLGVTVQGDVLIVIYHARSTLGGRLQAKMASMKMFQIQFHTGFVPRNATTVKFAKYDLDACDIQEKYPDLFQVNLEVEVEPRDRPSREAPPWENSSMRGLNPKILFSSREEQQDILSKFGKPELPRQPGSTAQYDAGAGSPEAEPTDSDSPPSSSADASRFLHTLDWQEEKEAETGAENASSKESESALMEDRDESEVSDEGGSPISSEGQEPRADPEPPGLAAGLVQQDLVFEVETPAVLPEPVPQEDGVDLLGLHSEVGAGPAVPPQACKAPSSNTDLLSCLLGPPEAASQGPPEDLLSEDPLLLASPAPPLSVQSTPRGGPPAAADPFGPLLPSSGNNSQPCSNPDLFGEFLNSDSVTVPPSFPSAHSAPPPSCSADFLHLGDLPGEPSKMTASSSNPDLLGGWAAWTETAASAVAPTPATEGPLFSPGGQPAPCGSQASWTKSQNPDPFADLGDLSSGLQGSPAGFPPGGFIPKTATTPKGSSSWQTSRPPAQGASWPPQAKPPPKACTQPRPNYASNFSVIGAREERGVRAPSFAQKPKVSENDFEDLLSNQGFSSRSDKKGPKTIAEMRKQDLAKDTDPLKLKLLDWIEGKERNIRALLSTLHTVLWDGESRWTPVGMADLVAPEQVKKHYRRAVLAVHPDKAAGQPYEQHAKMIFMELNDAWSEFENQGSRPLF
How it was run: as §1

T1 sequence (Q8TDX7 whole entry, species assumed): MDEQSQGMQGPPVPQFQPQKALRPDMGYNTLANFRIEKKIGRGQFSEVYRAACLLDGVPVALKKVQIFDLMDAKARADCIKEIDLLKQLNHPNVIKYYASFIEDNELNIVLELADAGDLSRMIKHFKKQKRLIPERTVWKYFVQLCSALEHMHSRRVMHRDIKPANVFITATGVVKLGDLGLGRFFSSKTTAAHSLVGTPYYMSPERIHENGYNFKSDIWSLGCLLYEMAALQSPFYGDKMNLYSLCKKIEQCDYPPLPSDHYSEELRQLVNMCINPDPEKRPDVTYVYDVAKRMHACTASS

Q: How did the inhibition at 1 µM (NEK7) turn out when `C=CC(=O)N1CCCC(c2c(F)cc(C(N)=O)c3[nH]c4c(c23)CCCCC4)C1` (single isomer, unassigned) [Compound 5-6] was run?
A: Its inhibition at 1 µM is 14.6%.

Q: And the inhibition at 1 µM (LYNB)?
A: Its inhibition at 1 µM is 8.9%.

Q: And the inhibition at 1 µM (SYK)?
A: Its inhibition at 1 µM is 2.8%.

Q: What about the inhibition at 1 µM (EPHA6) of the same compound?
A: The inhibition at 1 µM was 6.1%.

Q: And the inhibition at 1 µM (GAK)?
A: Its inhibition at 1 µM is 17.9%.

Q: With `C=CC(=O)N1CCC[C@@H](c2c(F)cc(C(N)=O)c3[nH]c4c(c23)CC2(CC4)CC2)C1` [Compound 6-2, (S)-5-(1-acryloylpiperidin-3-yl)-6-fluoro-1,2,4,9-tetrahydrospiro[carbazole-3,1′-cyclopropane]-8-carboxamide] as the compound, how does the inhibition at 1 µM (NEK7) read?
A: The inhibition at 1 µM was 13.8%.

Q: And the inhibition at 1 µM (LYNB)?
A: Its inhibition at 1 µM is 28.9%.

Q: And the inhibition at 1 µM (SYK)?
A: Its inhibition at 1 µM is -5.3%.

Q: What about the inhibition at 1 µM (EPHA6) of the same compound?
A: The inhibition at 1 µM was -14.6%.

Q: What about the inhibition at 1 µM (GAK) of the same compound?
A: Its inhibition at 1 µM is -3.7%.

Q: Which inhibition at 1 µM (NEK7) does the source give for `C=CC(=O)N1CCC[C@@H](c2c(F)cc(C(N)=O)c3[nH]c4c(c23)CCC4)C1` [Compound 10-2, (S)-8-(1-acryloylpiperidin-3-yl)-7-fluoro-1,2,3,4-tetrahydrocyclo-penta[b]indole-5-carboxamide] here?
A: The inhibition at 1 µM was -22.6%.

Q: And the inhibition at 1 µM (LYNB)?
A: Its inhibition at 1 µM is 23.2%.

Q: What about the inhibition at 1 µM (SYK) of the same compound?
A: Its inhibition at 1 µM is -14.1%.

Q: And the inhibition at 1 µM (EPHA6)?
A: The inhibition at 1 µM was -17.7%.

Q: And the inhibition at 1 µM (GAK)?
A: Its inhibition at 1 µM is -28.4%.
